Results as given in PMC12629169, “Antiaging, Wound‐Healing Properties and Chemical Characterization of Crude Hydroalcoholic Extract and Fractions of Myrcia neoobscura” (Chemistry & Biodiversity, 2025).
Converted amounts (≈) assume the structure as drawn.

Biological target: T1, collagenase
T1 construct: gene colG
Assay: ninhydrin colorimetric gelatin hydrolysis
Assay type: biochemical
Conditions: gelatin substrate, Tris-HCl pH 7.5, 5 mM CaCl2, 1 µM ZnCl2, 37°C

`O=C(O)c1cc(O)c(O)c(O)c1` [compound 1, gallic acid] gave an IC50 of 108.88 ± 12.71 µg/mL (≈ 640 µM).
